Columns and labels:
Format in all cases: cell-based
[1] = molecular target: T1, Protein cereblon/Tyrosine-protein phosphatase non-receptor type 1 (Homo sapiens, UniProt P18031+Q96SW2); assay: PROTAC activity at PTP1B/CRBN in insulin treated human HepG2 cells assessed as protein degradation at 5 nM incubated for 48 hrs by Western blot analysis relative to control
Target sequence in this assay (P18031 whole entry, looked up): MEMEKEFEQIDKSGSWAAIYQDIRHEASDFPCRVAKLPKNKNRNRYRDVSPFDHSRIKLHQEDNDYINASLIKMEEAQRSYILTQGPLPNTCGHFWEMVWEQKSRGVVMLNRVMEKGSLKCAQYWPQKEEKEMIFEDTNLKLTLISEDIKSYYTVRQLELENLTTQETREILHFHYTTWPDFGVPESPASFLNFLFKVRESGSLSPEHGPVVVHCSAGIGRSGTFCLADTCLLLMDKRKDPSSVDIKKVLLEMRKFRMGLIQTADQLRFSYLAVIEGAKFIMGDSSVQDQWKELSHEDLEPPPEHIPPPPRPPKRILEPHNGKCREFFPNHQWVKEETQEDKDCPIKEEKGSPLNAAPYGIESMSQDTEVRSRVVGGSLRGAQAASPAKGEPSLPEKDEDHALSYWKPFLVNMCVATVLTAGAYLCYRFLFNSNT
Target sequence in this assay (Q96SW2 whole entry, looked up): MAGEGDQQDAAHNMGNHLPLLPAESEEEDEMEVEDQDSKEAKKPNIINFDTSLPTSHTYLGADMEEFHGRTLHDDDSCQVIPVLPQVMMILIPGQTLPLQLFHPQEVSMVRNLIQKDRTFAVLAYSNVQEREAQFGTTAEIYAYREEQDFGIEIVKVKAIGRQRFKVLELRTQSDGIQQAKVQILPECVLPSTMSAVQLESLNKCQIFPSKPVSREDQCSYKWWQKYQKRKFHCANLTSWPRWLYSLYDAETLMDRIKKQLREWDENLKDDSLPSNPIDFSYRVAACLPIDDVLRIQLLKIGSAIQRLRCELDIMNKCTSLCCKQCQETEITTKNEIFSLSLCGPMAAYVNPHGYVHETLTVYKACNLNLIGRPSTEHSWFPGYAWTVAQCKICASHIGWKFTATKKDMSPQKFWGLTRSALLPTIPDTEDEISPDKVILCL

[2] = molecular target: T1, Protein cereblon/Tyrosine-protein phosphatase non-receptor type 1; assay: PROTAC activity at PTP1B/CRBN in insulin treated human HepG2 cells assessed as protein degradation at 50 nM incubated for 48 hrs by Western blot analysis relative to control
Target sequence in this assay (P18031 whole entry, looked up): as the sequence (P18031 whole entry, looked up) above
Target sequence in this assay (Q96SW2 whole entry, looked up): as the sequence (Q96SW2 whole entry, looked up) above

[3] = molecular target: T1, Protein cereblon/Tyrosine-protein phosphatase non-receptor type 1; assay: PROTAC activity at PTP1B/CRBN in insulin treated human HepG2 cells assessed as protein degradation at 5000 nM incubated for 48 hrs by Western blot analysis relative to control
Target sequence in this assay (P18031 whole entry, looked up): as the sequence (P18031 whole entry, looked up) above
Target sequence in this assay (Q96SW2 whole entry, looked up): as the sequence (Q96SW2 whole entry, looked up) above

[4] = molecular target: T1, Protein cereblon/Tyrosine-protein phosphatase non-receptor type 1; assay: PROTAC activity at PTP1B/CRBN in insulin treated human HepG2 cells assessed as protein degradation at 500 nM incubated for 48 hrs by Western blot analysis relative to control
Target sequence in this assay (P18031 whole entry, looked up): as the sequence (P18031 whole entry, looked up) above
Target sequence in this assay (Q96SW2 whole entry, looked up): as the sequence (Q96SW2 whole entry, looked up) above

[5] = molecular target: T1, Protein cereblon/Tyrosine-protein phosphatase non-receptor type 1; assay: PROTAC activity at PTP1B/CRBN in insulin treated human HepG2 cells assessed as protein degradation at 25 nM incubated for 72 hrs by Western blot analysis relative to control
Target sequence in this assay (P18031 whole entry, looked up): as the sequence (P18031 whole entry, looked up) above
Target sequence in this assay (Q96SW2 whole entry, looked up): as the sequence (Q96SW2 whole entry, looked up) above

[6] = molecular target: T1, Protein cereblon/Tyrosine-protein phosphatase non-receptor type 1; assay: PROTAC activity at PTP1B/CRBN in insulin treated human HepG2 cells assessed as protein degradation at 1 nM incubated for 72 hrs by Western blot analysis relative to control
Target sequence in this assay (P18031 whole entry, looked up): as the sequence (P18031 whole entry, looked up) above
Target sequence in this assay (Q96SW2 whole entry, looked up): as the sequence (Q96SW2 whole entry, looked up) above

[7] = molecular target: T1, Protein cereblon/Tyrosine-protein phosphatase non-receptor type 1; assay: PROTAC activity at PTP1B/CRBN in insulin treated human HepG2 cells assessed as protein degradation at 625 nM incubated for 48 hrs by Western blot analysis relative to control
[8] = molecular target: T1, Protein cereblon/Tyrosine-protein phosphatase non-receptor type 1; assay: PROTAC activity at PTP1B/CRBN in insulin treated human HepG2 cells assessed as protein degradation at 625 nM incubated for 72 hrs by Western blot analysis relative to control
[9] = molecular target: T1, Protein cereblon/Tyrosine-protein phosphatase non-receptor type 1; assay: PROTAC activity at PTP1B/CRBN in insulin treated human HepG2 cells assessed as protein degradation at 25 nM incubated for 48 hrs by Western blot analysis relative to control
[10] = molecular target: T1, Protein cereblon/Tyrosine-protein phosphatase non-receptor type 1; assay: PROTAC activity at PTP1B/CRBN in insulin treated human HepG2 cells assessed as protein degradation at 1 nM incubated for 48 hrs by Western blot analysis relative to control
[11] = molecular target: T1, Protein cereblon/Tyrosine-protein phosphatase non-receptor type 1; assay: PROTAC activity at PTP1B/CRBN in insulin treated human HepG2 cells assessed as protein degradation at 5 nM incubated for 72 hrs by Western blot analysis relative to control
[12] = molecular target: T1, Protein cereblon/Tyrosine-protein phosphatase non-receptor type 1; assay: PROTAC activity at PTP1B/CRBN in insulin treated human HepG2 cells assessed as protein degradation at 125 nM incubated for 48 hrs by Western blot analysis relative to control
[13] = molecular target: T1, Protein cereblon/Tyrosine-protein phosphatase non-receptor type 1; assay: PROTAC activity at PTP1B/CRBN in insulin treated human HepG2 cells assessed as protein degradation at 1250 nM incubated for 48 hrs by Western blot analysis relative to control
[14] = molecular target: T1, Protein cereblon/Tyrosine-protein phosphatase non-receptor type 1; assay: PROTAC activity at PTP1B/CRBN in insulin treated human HepG2 cells assessed as protein degradation incubated for 48 hrs by Western blot analysis
[15] = molecular target: T1, Protein cereblon/Tyrosine-protein phosphatase non-receptor type 1; assay: PROTAC activity at PTP1B/CRBN in insulin treated human HepG2 cells assessed as protein degradation incubated for 72 hrs by Western blot analysis
[16] = molecular target: T1, Protein cereblon/Tyrosine-protein phosphatase non-receptor type 1; assay: PROTAC activity at PTP1B/CRBN in insulin treated human HepG2 cells assessed as protein degradation at 1250 nM incubated for 72 hrs by Western blot analysis relative to control
[17] = molecular target: T1, Protein cereblon/Tyrosine-protein phosphatase non-receptor type 1; assay: PROTAC activity at PTP1B/CRBN in insulin treated human HepG2 cells assessed as protein degradation at 125 nM incubated for 72 hrs by Western blot analysis relative to control

Structure (SMILES)	Activity [1]	Activity [2]	Activity [3]	Activity [4]	also measured
C[C@H]1[C@H](C)CC[C@]2(C(=O)NCCCCCCOCCOCCOCCOCCCCCC(=O)Nc3cccc4c3C(=O)N(C3CCC(=O)NC3=O)C4=O)CC[C@]3(C)C(=CC[C@@H]4[C@@]5(C)CC[C@H](O)C(C)(C)[C@@H]5CC[C@]43C)[C@H]12 (stereo partly drawn)	< 5%	< 5%	42%	12%	
CC1(C)CC[C@]2(C(=O)NCCCCCCOCCOCCCCCC(=O)Nc3cccc4c3C(=O)N(C3CCC(=O)NC3=O)C4=O)CC[C@]3(C)C(=CC[C@@H]4[C@@]5(C)CC[C@H](O)C(C)(C)[C@@H]5CC[C@]43C)[C@@H]2C1 (stereo partly drawn)	45%	33%	< 5%	36%	
C[C@H]1[C@H](C)CC[C@]2(C(=O)NCCCCCCNc3cccc4c3C(=O)N(C3CCC(=O)NC3=O)C4=O)CC[C@]3(C)C(=CC[C@@H]4[C@@]5(C)CC[C@H](O)C(C)(C)[C@@H]5CC[C@]43C)[C@H]12 (stereo partly drawn)	11%	67%	14%	23%	
CC1(C)CC[C@]2(C(=O)NCCCOCCCCOCCCNc3cccc4c3C(=O)N(C3CCC(=O)NC3=O)C4=O)CC[C@]3(C)C(=CC[C@@H]4[C@@]5(C)CC[C@H](O)C(C)(C)[C@@H]5CC[C@]43C)[C@@H]2C1 (stereo partly drawn)	17%	75%	58%	55%	Activity [5]: 66%; Activity [6]: 5%; Activity [7]: 45%; Activity [8]: 47%; Activity [9]: < 5%; Activity [10]: 33%; Activity [11]: 54%; Activity [12]: 8%; Activity [13]: 62%; Activity [14]: Dose-Dependent Effect; DC50 [14]: 770 nM; Activity [15]: Dose-Dependent Effect; DC50 [15]: 200 nM; Activity [16]: 53%; Activity [17]: 43%
CC1(C)CC[C@]2(C(=O)NCCCCCCOCCOCCOCCOCC(=O)Nc3cccc4c3C(=O)N(C3CCC(=O)NC3=O)C4=O)CC[C@]3(C)C(=CC[C@@H]4[C@@]5(C)CC[C@H](O)C(C)(C)[C@@H]5CC[C@]43C)[C@@H]2C1 (stereo partly drawn)	24%	51%	32%	6%	
O=C1CCC(N2C(=O)c3cccc(NC(=O)CCCCCOCCOCCOCCOCCCCCCNC(=O)c4cccc(NC(=O)CSc5nc6ccccc6[nH]5)c4)c3C2=O)C(=O)N1 (stereo not drawn)	32%	17%	< 5%	< 5%	
C[C@H]1[C@H](C)CC[C@]2(C(=O)NCCCOCCCCOCCCNc3cccc4c3C(=O)N(C3CCC(=O)NC3=O)C4=O)CC[C@]3(C)C(=CC[C@@H]4[C@@]5(C)CC[C@H](O)C(C)(C)C5CC[C@]43C)[C@H]12 (stereo partly drawn)	36%	65%	46%	54%	
O=C1CCC(N2C(=O)c3cccc(NC(=O)CCCCCOCCOCCOCCCCCCNC(=O)c4cccc(NC(=O)CSc5nc6ccccc6[nH]5)c4)c3C2=O)C(=O)N1 (stereo not drawn)	8%	32%	30%	< 5%	
CC1(C)CC[C@]2(C(=O)NCCCCCCOCCOCCOCCCCCC(=O)Nc3cccc4c3C(=O)N(C3CCC(=O)NC3=O)C4=O)CC[C@]3(C)C(=CC[C@@H]4[C@@]5(C)CC[C@H](O)C(C)(C)[C@@H]5CC[C@]43C)[C@@H]2C1 (stereo partly drawn)	8%	16%	22%	< 5%	
CC1(C)CC[C@]2(C(=O)NCCCCCCNc3cccc4c3C(=O)N(C3CCC(=O)NC3=O)C4=O)CC[C@]3(C)C(=CC[C@@H]4[C@@]5(C)CC[C@H](O)C(C)(C)[C@@H]5CC[C@]43C)[C@@H]2C1 (stereo partly drawn)	38%	44%	29%	43%	
C[C@H]1[C@H](C)CC[C@]2(C(=O)NCCCCCCOCCOCCOCCOCC(=O)Nc3cccc4c3C(=O)N(C3CCC(=O)NC3=O)C4=O)CC[C@]3(C)C(=CC[C@@H]4[C@@]5(C)CC[C@H](O)C(C)(C)[C@@H]5CC[C@]43C)[C@H]12 (stereo partly drawn)	< 5%	41%	19%	33%	Activity [5]: 48%; Activity [6]: 30%; Activity [7]: 68%; Activity [8]: 28%; Activity [9]: 23%; Activity [10]: 37%; Activity [11]: 36%; Activity [12]: 61%; Activity [13]: 35%; Activity [14]: Dose-Dependent Effect; DC50 [14]: 200 nM; Activity [15]: Dose-Dependent Effect; DC50 [15]: 310 nM; Activity [16]: 61%; Activity [17]: 32%
O=C1CCC(N2C(=O)c3cccc(NC(=O)COCCOCCOCCCCCCNC(=O)c4cccc(NC(=O)CSc5nc6ccccc6[nH]5)c4)c3C2=O)C(=O)N1 (stereo not drawn)	71%	38%	< 5%	13%	
C[C@H]1[C@H](C)CC[C@]2(C(=O)NCCCCCCOCCOCCOCCCCCC(=O)Nc3cccc4c3C(=O)N(C3CCC(=O)NC3=O)C4=O)CC[C@]3(C)C(=CC[C@@H]4[C@@]5(C)CC[C@H](O)C(C)(C)[C@@H]5CC[C@]43C)[C@H]12 (stereo partly drawn)	16%	< 5%	17%	6%	
O=C1CCC(N2C(=O)c3cccc(NC(=O)CCCCCOCCOCCCCCCNC(=O)c4cccc(NC(=O)CSc5nc6ccccc6[nH]5)c4)c3C2=O)C(=O)N1 (stereo not drawn)	< 5%	17%	10%	13%	
CC1(C)CC[C@]2(C(=O)NCCCOCCOCCOCCCNc3cccc4c3C(=O)N(C3CCC(=O)NC3=O)C4=O)CC[C@]3(C)C(=CC[C@@H]4[C@@]5(C)CC[C@H](O)C(C)(C)[C@@H]5CC[C@]43C)[C@@H]2C1 (stereo partly drawn)	38%	61%	31%	53%	Activity [5]: 58%; Activity [6]: < 5%; Activity [7]: 51%; Activity [8]: 25%; Activity [9]: < 5%; Activity [10]: 24%; Activity [11]: 23%; Activity [12]: 36%; Activity [13]: 78%; Activity [14]: Dose-Dependent Effect; DC50 [14]: 540 nM; Activity [15]: Dose-Dependent Effect; DC50 [15]: 3640 nM; Activity [16]: 24%; Activity [17]: 41%
CC1(C)CC[C@]2(C(=O)NCCCCCCOCCOCC(=O)Nc3cccc4c3C(=O)N(C3CCC(=O)NC3=O)C4=O)CC[C@]3(C)C(=CC[C@@H]4[C@@]5(C)CC[C@H](O)C(C)(C)[C@@H]5CC[C@]43C)[C@@H]2C1 (stereo partly drawn)	57%	51%	< 5%	26%	
O=C1CCC(N2C(=O)c3cccc(NC(=O)COCCOCCOCCOCCCCCCNC(=O)c4cccc(NC(=O)CSc5nc6ccccc6[nH]5)c4)c3C2=O)C(=O)N1 (stereo not drawn)	26%	70%	15%	44%	
C[C@H]1[C@H](C)CC[C@]2(C(=O)NCCCCCCOCCOCC(=O)Nc3cccc4c3C(=O)N(C3CCC(=O)NC3=O)C4=O)CC[C@]3(C)C(=CC[C@@H]4[C@@]5(C)CC[C@H](O)C(C)(C)[C@@H]5CC[C@]43C)[C@H]12 (stereo partly drawn)	46%	60%	< 5%	< 5%	
CC1(C)CC[C@]2(C(=O)NCCCCCCOCCOCCOCC(=O)Nc3cccc4c3C(=O)N(C3CCC(=O)NC3=O)C4=O)CC[C@]3(C)C(=CC[C@@H]4[C@@]5(C)CC[C@H](O)C(C)(C)[C@@H]5CC[C@]43C)[C@@H]2C1 (stereo partly drawn)	84%	56%	< 5%	38%	
C[C@H]1[C@H](C)CC[C@]2(C(=O)NCCCCCCOCCOCCCCCC(=O)Nc3cccc4c3C(=O)N(C3CCC(=O)NC3=O)C4=O)CC[C@]3(C)C(=CC[C@@H]4[C@@]5(C)CC[C@H](O)C(C)(C)[C@@H]5CC[C@]43C)[C@H]12 (stereo partly drawn)	18%	47%	5%	29%	
O=C1CCC(N2C(=O)c3cccc(NC(=O)CCCCCCCCCCNC(=O)c4cccc(NC(=O)CSc5nc6ccccc6[nH]5)c4)c3C2=O)C(=O)N1 (stereo not drawn)	32%	9%	< 5%	19%	
O=C1CCC(N2C(=O)c3cccc(NC(=O)COCCOCCCCCCNC(=O)c4cccc(NC(=O)CSc5nc6ccccc6[nH]5)c4)c3C2=O)C(=O)N1 (stereo not drawn)	24%	69%	< 5%	43%	

— ChEMBL document CHEMBL5543175, “Discovery of Selective Proteolysis-Targeting Chimera Degraders Targeting PTP1B as Long-Term Hypoglycemic Agents” (J Med Chem, 2024)
